Results on 6 compounds are retold here after ChEMBL document CHEMBL1141004, “N-((8-hydroxy-5-substituted-quinolin-7-yl)(phenyl)methyl)-2-phenyloxy/amino-acetamide inhibitors of ADAMTS-5 (Aggrecanase-2)” (Bioorg Med Chem Lett, 2008).

Some results are limits rather than exact numbers.

A short description of data set [1]: Metabolic stability in rat liver microsomes assessed as half life. Format: ADME, Microsome.
Data set [2] has as its target T1, A disintegrin and metalloproteinase with thrombospondin motifs 5 (Homo sapiens, UniProt Q9UNA0).
T1 sequence (Q9UNA0 whole entry): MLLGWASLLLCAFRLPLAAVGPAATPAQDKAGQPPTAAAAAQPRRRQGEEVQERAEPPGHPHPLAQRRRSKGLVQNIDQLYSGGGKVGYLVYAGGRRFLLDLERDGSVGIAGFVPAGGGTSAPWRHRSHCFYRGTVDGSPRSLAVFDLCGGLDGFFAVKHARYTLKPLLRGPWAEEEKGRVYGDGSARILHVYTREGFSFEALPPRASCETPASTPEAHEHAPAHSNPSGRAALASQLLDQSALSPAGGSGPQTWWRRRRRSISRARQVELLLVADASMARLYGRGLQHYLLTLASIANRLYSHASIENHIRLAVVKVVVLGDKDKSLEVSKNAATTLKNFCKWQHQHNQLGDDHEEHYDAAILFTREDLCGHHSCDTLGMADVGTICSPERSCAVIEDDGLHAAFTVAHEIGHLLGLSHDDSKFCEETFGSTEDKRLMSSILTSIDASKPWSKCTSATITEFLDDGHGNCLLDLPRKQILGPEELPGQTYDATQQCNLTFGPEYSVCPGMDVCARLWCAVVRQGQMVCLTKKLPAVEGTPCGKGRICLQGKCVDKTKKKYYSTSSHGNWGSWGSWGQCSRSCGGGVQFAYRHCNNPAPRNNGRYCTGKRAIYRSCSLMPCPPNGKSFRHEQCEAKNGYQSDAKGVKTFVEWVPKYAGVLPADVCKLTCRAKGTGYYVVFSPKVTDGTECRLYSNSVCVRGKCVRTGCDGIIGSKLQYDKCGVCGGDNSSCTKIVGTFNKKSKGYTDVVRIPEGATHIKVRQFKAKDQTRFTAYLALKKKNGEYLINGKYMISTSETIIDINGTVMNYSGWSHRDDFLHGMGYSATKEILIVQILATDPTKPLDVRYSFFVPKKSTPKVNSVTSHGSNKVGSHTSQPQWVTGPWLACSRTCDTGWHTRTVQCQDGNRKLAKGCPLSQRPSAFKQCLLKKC
Nature of the data set: Inhibition of ADAMTS5 by FRET assay.

For data set [3], the target named is Cytochrome P450 3A4 (Homo sapiens, UniProt P08684). Nature of the data set: Inhibition of CYP3A4 at 30 uM by FRET assay. Format: ADME.
The target in data set [4] is Macrophage metalloelastase (Homo sapiens) (UniProt P39900). The data set is described as follows: Inhibition of MMP12 at […] by FRET assay.
Data set [5] addresses Collagenase 3 (Homo sapiens, UniProt P45452). The data set is described as follows: Inhibition of MMP13 by FRET assay.
Data set [6] concerns the target T2, A disintegrin and metalloproteinase with thrombospondin motifs 4 (Homo sapiens, UniProt O75173).
T2 sequence (O75173 whole entry): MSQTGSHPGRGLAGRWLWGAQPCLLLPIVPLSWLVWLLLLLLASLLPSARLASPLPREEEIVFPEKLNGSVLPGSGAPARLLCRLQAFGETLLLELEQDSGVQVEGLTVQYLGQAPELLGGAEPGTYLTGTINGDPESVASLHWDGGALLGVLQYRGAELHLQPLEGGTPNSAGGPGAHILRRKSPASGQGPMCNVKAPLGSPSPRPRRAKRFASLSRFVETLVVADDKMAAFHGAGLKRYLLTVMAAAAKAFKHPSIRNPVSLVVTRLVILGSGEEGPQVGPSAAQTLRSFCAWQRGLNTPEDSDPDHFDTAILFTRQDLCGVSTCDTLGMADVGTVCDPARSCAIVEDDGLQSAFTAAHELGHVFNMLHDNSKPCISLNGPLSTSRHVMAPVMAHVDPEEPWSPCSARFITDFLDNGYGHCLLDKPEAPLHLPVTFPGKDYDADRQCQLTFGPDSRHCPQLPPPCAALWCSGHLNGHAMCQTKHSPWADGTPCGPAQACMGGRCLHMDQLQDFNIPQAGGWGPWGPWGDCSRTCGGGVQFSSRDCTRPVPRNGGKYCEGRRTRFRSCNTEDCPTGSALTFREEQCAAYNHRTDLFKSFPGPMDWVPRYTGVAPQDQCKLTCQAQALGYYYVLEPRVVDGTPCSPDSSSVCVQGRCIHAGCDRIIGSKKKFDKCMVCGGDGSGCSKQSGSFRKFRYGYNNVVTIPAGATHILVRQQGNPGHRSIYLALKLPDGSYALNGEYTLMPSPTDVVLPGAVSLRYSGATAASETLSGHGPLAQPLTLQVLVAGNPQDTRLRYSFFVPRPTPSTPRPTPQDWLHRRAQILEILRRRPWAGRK
The data set is described as follows: Inhibition of ADAMTS4 by FRET assay.

Chain of Macrophage metalloelastase (Homo sapiens) (P39900 106-470 limits assumed): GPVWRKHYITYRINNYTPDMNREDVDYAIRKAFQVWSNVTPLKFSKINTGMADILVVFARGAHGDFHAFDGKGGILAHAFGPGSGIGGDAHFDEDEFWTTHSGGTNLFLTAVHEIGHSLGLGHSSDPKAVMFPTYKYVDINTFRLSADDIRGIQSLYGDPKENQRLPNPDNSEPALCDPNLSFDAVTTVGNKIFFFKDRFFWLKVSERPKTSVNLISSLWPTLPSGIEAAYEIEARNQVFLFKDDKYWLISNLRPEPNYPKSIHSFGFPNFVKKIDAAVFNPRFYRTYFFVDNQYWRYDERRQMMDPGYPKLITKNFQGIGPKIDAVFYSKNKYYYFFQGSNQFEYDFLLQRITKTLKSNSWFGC
Chain of Cytochrome P450 3A4 (P08684 whole entry): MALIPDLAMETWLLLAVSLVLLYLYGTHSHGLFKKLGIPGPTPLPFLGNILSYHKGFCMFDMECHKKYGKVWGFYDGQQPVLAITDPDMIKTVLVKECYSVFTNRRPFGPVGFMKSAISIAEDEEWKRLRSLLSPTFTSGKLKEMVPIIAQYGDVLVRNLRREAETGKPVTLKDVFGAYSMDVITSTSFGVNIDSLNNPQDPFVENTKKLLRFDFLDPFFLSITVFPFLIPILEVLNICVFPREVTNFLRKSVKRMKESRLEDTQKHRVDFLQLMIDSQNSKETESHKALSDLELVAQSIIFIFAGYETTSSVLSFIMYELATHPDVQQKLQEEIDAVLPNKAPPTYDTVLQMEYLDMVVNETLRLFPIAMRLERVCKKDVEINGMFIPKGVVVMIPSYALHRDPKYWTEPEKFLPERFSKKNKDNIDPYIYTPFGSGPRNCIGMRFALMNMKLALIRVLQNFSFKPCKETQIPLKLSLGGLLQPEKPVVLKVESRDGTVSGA

On to `Cc1cc(OCC(=O)NC(c2cccc([N+](=O)[O-])c2)c2cc(Cl)c3cccnc3c2O)ccc1Cl` (stereo unspecified), for which, in data set [1], the half-life is 30 min. This compound returned a half-maximal inhibitory concentration (IC50) in data set [2] above 10 µM. In data set [3], this compound yielded an inhibition (INH) of 19%.
Regarding `O=C(COc1ccccc1)NC(c1ccccc1Cl)c1cc(Cl)c2cccnc2c1O` (stereo unspecified), the inhibition in data set [4] stood at 50%. Besides, the values for the 50% inhibitory concentration (IC50) in data set [5] and in data set [6] were above 67 µM and 2.4 µM, respectively. In addition, the inhibition (INH) in data set [3] was 43%.
Consider `COc1ccc(C(NC(=O)COc2ccc(Cl)c(C)c2)c2cc(Cl)c3cccnc3c2O)cc1` (stereo unspecified), for which the half-life in data set [1] is 9 min. The compound also returned a 50% inhibitory concentration (IC50) in data set [2] above 10 µM. This compound also returned an inhibition (INH) in data set [3] of 25%.
Turning to `O=C(COc1ccccc1)NC(c1cccc([N+](=O)[O-])c1)c1cc(Cl)c2cccnc2c1O` (stereo unspecified), the half-life in data set [1] worked out at 6 min. In addition, the inhibition in data set [4] turned out to be 45%. Moreover, the half-inhibitory concentration (IC50) in data set [5] was above 200 µM; in data set [6], 1.9 µM. Besides, the inhibition (INH) in data set [3] was 26%.
`COc1ccc(OCC(=O)NC(c2ccc(OC)cc2)c2cc(Cl)c3cccnc3c2O)cc1` (stereo unspecified) came in with an inhibition in data set [4] of 37%. Besides, the IC50 is above 200 µM in data set [5] and above 50 µM in data set [6]. In data set [3], the inhibition (INH) turned out to be 74%.
Regarding `CC(=O)c1ccc(NCC(=O)NC(c2ccc(C)cc2)c2cc(Cl)c3cccnc3c2O)cc1` (stereo unspecified), the half-life in data set [1] was determined as 4 min. The same compound yielded an inhibition (INH) in data set [3] of 45%.
